Results: publication PMC7317212 (Chemmedchem, 2020)

Key:
[1] = biological target: T1, mGAT3 (Mus musculus, UniProt P31649); conditions: cited from earlier work
T1 construct: expressed in transfected cells; host or cells: HEK293
T1 sequence (P31649 1-602): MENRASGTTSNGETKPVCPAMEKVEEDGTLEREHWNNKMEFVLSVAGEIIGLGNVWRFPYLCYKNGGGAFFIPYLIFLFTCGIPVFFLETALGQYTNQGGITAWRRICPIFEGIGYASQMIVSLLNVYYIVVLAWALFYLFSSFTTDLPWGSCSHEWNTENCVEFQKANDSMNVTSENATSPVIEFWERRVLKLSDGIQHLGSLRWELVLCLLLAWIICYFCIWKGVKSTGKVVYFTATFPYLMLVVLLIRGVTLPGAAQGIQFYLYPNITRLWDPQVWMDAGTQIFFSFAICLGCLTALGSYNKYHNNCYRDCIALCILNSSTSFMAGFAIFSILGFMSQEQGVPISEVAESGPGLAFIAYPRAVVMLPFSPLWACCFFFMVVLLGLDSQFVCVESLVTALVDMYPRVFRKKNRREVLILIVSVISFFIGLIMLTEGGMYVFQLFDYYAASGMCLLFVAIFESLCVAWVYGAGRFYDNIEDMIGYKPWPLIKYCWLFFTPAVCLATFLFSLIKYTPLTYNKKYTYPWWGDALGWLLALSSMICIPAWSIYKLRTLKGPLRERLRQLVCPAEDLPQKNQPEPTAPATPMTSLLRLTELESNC

[2] = biological target: T2, mGAT2 (Mus musculus, UniProt P31651); conditions: cited from earlier work; for remaining [^3H]GABA uptake mGAT2: in presence of 100 μM compound
T2 construct: expressed in transfected cells; host or cells: HEK293
T2 sequence (P31651 1-614): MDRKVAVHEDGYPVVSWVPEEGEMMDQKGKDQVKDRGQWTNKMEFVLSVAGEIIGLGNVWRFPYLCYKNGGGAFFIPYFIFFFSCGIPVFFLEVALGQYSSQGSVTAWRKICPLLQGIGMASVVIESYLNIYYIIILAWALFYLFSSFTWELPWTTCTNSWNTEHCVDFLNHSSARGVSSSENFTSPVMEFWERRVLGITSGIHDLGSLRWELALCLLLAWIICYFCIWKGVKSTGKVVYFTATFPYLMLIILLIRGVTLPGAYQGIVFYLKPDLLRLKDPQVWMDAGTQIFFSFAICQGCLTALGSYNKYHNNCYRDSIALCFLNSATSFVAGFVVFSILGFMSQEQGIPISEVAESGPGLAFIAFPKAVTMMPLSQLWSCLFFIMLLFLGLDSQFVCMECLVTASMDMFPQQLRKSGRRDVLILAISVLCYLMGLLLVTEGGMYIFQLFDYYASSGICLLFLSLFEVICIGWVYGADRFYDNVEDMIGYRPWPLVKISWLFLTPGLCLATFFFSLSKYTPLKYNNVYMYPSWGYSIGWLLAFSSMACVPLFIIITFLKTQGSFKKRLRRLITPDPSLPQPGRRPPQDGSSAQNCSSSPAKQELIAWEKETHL

[3] = biological target: T3, mGAT4 (Mus musculus, UniProt P31650); conditions: in presence of 100 μM compound; cited from earlier work
T3 construct: expressed in transfected cells; host or cells: HEK293
T3 sequence (P31650 1-627): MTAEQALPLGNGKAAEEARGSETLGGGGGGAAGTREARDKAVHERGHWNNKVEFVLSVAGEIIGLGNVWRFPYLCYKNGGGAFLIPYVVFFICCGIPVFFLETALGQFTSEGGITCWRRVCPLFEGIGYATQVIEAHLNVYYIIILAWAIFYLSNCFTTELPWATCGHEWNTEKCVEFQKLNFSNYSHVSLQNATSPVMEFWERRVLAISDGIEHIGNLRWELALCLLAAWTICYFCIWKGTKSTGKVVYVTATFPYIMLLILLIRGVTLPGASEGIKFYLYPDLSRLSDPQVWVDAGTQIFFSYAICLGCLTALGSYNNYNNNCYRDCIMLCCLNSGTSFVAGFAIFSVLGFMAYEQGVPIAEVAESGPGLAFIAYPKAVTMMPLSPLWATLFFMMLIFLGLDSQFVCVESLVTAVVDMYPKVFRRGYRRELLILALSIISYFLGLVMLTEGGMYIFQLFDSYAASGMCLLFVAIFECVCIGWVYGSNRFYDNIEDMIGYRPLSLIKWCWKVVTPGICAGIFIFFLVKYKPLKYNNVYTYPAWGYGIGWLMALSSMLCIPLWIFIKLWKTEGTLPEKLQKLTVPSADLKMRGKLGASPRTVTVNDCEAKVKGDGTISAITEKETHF

[4] = biological target: T1, mGAT3; test: [^3H]GABA uptake assay, HEK293 cells expressing mGAT3; type: cell-based; conditions: for IC50: [^3H]GABA uptake, pIC50±SEM; for remaining activity at 100 µM: HEK293, in presence of 100 μM compound
How it was run: (§1)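 HEK293 cells expressing mouse GATs preincubated 25 min at 37 °C with compound in Krebs buffer pH 7.2, then [3H]GABA added: 8 nM plus 32 nM unlabeled for 4 min (mGAT1/3/4), 20 nM plus 20 nM for 10 min (mGAT2). Filtration, scintillation counting; nonspecific uptake with 10 mM (mGAT1/3/4) or 100 mM GABA (mGAT2); pIC50.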

[5] = biological target: T2, mGAT2; test: [^3H]GABA uptake assay, HEK293 cells expressing mGAT2; type: cell-based; conditions: for remaining activity at 100 µM: HEK293, in presence of 100 μM compound
How it was run: as §1

[6] = biological target: T4, mGAT1 (Mus musculus, UniProt P31648); test: [^3H]GABA uptake assay, HEK293 cells expressing mGAT1; type: cell-based; conditions: for remaining activity at 100 µM: HEK293, in presence of 100 μM compound
T4 construct: expressed in transfected cells; host or cells: HEK293
How it was run: as §1

[7] = biological target: T4, mGAT1; test: MS Binding Assay with NO711 as native MS marker; conditions: for remaining activity at 100 µM: in presence of 100 μM compound, read-out: remaining specific NO711 binding (mGAT1)
How it was run: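 Competitive MS binding using membranes from HEK293 cells stably expressing mGAT1, with 10 nM unlabeled NO711 as marker and compounds at 7 concentrations. Nonspecific binding defined with 100 mM GABA. Bound NO711 eluted after filtration and quantified by LC-ESI-MS/MS against [2H10]NO711; Ki derived.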

[8] = biological target: T3, mGAT4; test: [^3H]GABA uptake assay, HEK293 cells expressing mGAT4; type: cell-based; conditions: for IC50: [^3H]GABA uptake, pIC50±SEM; for remaining activity at 100 µM: HEK293, in presence of 100 μM compound
How it was run: as §1

[9] = biological target: T3, mGAT4; test: GABA uptake inhibition at mGAT4 with varied preincubation time; type: cell-based

SMILES | IC50 [4] [µM] | remaining activity at 100 µM [5] [%] | remaining activity at 100 µM [6] [%] | IC50 [8] [µM] | remaining activity at 100 µM [7] [%] | remaining activity at 100 µM [4] [%] | remaining activity at 100 µM [8] [%] | further results
COc1ccc(C(OCCN2CCC[C@H](C(=O)O)C2)(c2ccc(OC)cc2)c2ccc(OC)cc2C)cc1 [DDPM‐859] |  |  |  |  |  |  |  | pIC50 mGAT3 ([1]; [^3H]GABA uptake, pIC50±SEM): 4.85±0.04; pIC50 mGAT2 ([2]; [^3H]GABA uptake, pIC50±SEM): 4.12±0.08
Cc1ccsc1C(=CCCN1CCC[C@@H](C(=O)O)C1)c1sccc1C [Tiagabine] |  |  |  |  |  |  |  | remaining [^3H]GABA uptake mGAT3 ([1]; in presence of 100 μM compound): 64%; remaining [^3H]GABA uptake mGAT4 [3]: 73%; remaining [^3H]GABA uptake mGAT2 [2]: 50%
COc1ccc(C(OCCN2CCCC(C(=O)O)C2)(c2ccc(C#N)cc2)c2ccc(OC)cc2)cc1 (racemic) [5 g, rac ‐1‐{2‐[(4‐Cyanophenyl)bis(4‐methoxyphenyl)methoxy]ethyl}piperidine‐3‐carboxylic acid] | 49 | 82.9 | 74.8 | 8.51 |  |  |  | Ki ([7]; MS Binding Assay, NO711 marker, pKi±SEM, read-out: pK i mGAT1 (converted)): 39.8 µM
COCc1ccc(C(OCCN2CCCC(C(=O)O)C2)(c2ccc(OC)cc2)c2ccc(OC)cc2)cc1 (racemic) [5 f, rac ‐1‐(2‐{[4‐(Methoxymethyl)phenyl]bis[4‐methoxyphenyl]methoxy}‐ethyl)piperidine‐3‐carboxylic acid] | 30.9 | 72.7 | 67.1 | 3.8 | 89.4 |  |  | 
CCOC(=O)C1CCCN(CCOC(c2ccc(OC)cc2)(c2ccc(OC)cc2)c2ccc(C(C)=O)cc2)C1 (racemic) [12 b, rac‐ Ethyl 1‐{2‐[(4‐acetylphenyl)bis(4‐methoxyphenyl)methoxy]ethyl}‐piperidine‐3‐carboxylate] |  | 66.4 | 72.9 |  | 84.6 | 55.2 | 84.2 | 
COc1ccc(C(OCCN2CCCC(C(=O)O)C2)(c2ccc(CNC3(C(=O)O)CC3)cc2)c2ccc(OC)cc2)cc1 (racemic) [5 p, rac‐ 1‐{2‐[(4‐{[(1‐Carboxycyclopropyl)amino]methyl}phenyl)bis(4‐methoxyphenyl)methoxy]ethyl}piperidine‐3‐carboxylic acid] |  | 76 | 78.2 | 13.2 | 58.8 | 69.1 |  | 
COc1ccc(C(OCCN2CCC[C@H](C(=O)O)C2)(c2ccc(OC)cc2)c2ccc(OC)cc2)cc1 [(S)‐SNAP‐5114, reference compound] |  |  |  |  |  |  |  | remaining [^3H]GABA uptake mGAT2 [2]: 56%; Normalized pIC50 mGAT4 ([9]; preincubation time 10 min, experiments 1-3, relative to 25 min = 100.00): 97.20; Normalized pIC50 mGAT4 ([9]; preincubation time 25 min, experiments 1-3 (reference)): 100.00; Normalized pIC50 mGAT4 ([9]; preincubation time 25 min, experiments 4-6 (reference)): 100.00; Normalized pIC50 mGAT4 ([9]; preincubation time 60 min, experiments 1-3, relative to 25 min = 100.00): 101.23; Normalized pIC50 mGAT4 ([9]; preincubation time 60 min, experiments 4-6, relative to 25 min = 100.00): 103.79
CCOC(=O)C1CCCN(CCOC(c2ccc(COC)cc2)(c2ccc(COC)cc2)c2ccc(OC)cc2)C1 (racemic) [12 h, rac‐ Ethyl 1‐(2‐{bis[4‐(methoxymethyl)phenyl][4‐methoxyphenyl]‐methoxy}ethyl)piperidine‐3‐carboxylate] |  |  | 64.9 | 89.1 | 72.9 | 50.6 |  | IC50 ([5]; [^3H]GABA uptake, pIC50±SEM): 50.1 µM

The next lines start with results.

IC50 [4] [µM] | remaining activity at 100 µM [5] [%] | remaining activity at 100 µM [6] [%] | IC50 [8] [µM] | remaining activity at 100 µM [7] [%] | remaining activity at 100 µM [4] [%] | remaining activity at 100 µM [8] [%] | SMILES | further results
35.5 | 49.3 | 50.4 | 58.9 | 75.3 |  |  | CCOC(=O)C1CCCN(CCOC(c2ccc(CO)cc2)(c2ccc(OC)cc2)c2ccc(OC)cc2)C1 (racemic) [12 m, rac ‐Ethyl 1‐(2‐{[4‐(hydroxymethyl)phenyl]bis[4‐methoxyphenyl]methoxy}‐ethyl)piperidine‐3‐carboxylate] | 
79.4 | 56.1 | 57.8 |  | 89.3 |  | 60 | CCOC(=O)C1CCCN(CCOC(c2ccc(OC)cc2)(c2ccc(OC)cc2)c2ccc(C(N)=O)cc2)C1 (racemic) [12 j, rac‐ Ethyl 1‐{2‐[(4‐carbamoylphenyl)bis(4‐methoxyphenyl)methoxy]‐ethyl}piperidine‐3‐carboxylate] | 
6.92 | 72.6 |  | 1.29 | 77.4 |  |  | COc1ccc(C(OCCN2CCC[C@H](C(=O)O)C2)(c2ccc(C=O)cc2)c2ccc(OC)cc2)cc1 [(S)‐5 a, (S)‐1‐{2‐[(4‐Formylphenyl)bis(4‐methoxyphenyl)methoxy]ethyl}piper‐idine‐3‐carboxylic acid] | IC50 ([6]; [^3H]GABA uptake, pIC50±SEM): 72.4 µM
 | 73.5 | 52.3 |  | 102 | 49.7 | 63.9 | CCOC(=O)C1CCCN(CCOC(c2ccc(CNc3ccc(C(=O)O)cc3)cc2)(c2ccc(OC)cc2)c2ccc(OC)cc2)C1 (racemic) [12 t, rac‐ 4‐{[4‐({2‐[3‐(Ethoxycarbonyl)piperidin‐1‐yl]ethoxy}bis{4‐methoxy‐phenyl}methyl)benzyl]amino}benzoic acid] | 
 | 103 | 75.5 |  | 95.8 | 58.8 | 66.1 | CCOC(=O)C1CCCN(CCOC(c2ccc(CNC3(C(=O)OCC)CC3)cc2)(c2ccc(OC)cc2)c2ccc(OC)cc2)C1 (racemic) [12 p, rac‐ Ethyl 1‐(2‐{[4‐({[1‐(ethoxycarbonyl)cyclopropyl]amino}methyl)‐phenyl]bis[4‐methoxyphenyl]methoxy}ethyl)piperidine‐3‐carboxylate] | 
